The source of these data is patent publication US8003634B2, “Analogs of benzoquinone-containing ansamycins and methods of use thereof” (Infinity Pharmaceuticals, Inc., priority 2003, dated 2011).

Counter-ions that a name gives are not always drawn. Like-named read-outs stand apart in the source and are kept apart here. Bounds are passed on as bounds.

Series [1] relates to human multiple myeloma cell line RPMI-8226. Briefly: Multiple myeloma model, subcutaneous RPMI-8226 tumors. Format: in vivo. Particulars: RPMI-8226 s.c. in male SCID/NOD mice; 100 mg/kg IV three consecutive days per week; after 45 days. On the procedure:
The effects of the test compound were studied in a human multiple myeloma cell line RPMI-8226 in male SCID/NOD mice. In this study, male mice were implanted subcutaneously with RPMI-8226 cells (1×10^7 cells). When the average tumor size reached 100 mm^3, animals were randomly assigned to treatment groups (N=10-15/group) to receive either vehicle (50 mM citrate, 50 mM ascorbate, 2.4 mM EDTA adjusted to pH 3.0) or 100 mg/kg (300 mg/m^2) of the test compound three consecutive days per week. The test article or vehicle was administered intravenously (IV) via the tail vein in a volume of 0.2 mL over approximately 20 seconds (sec). The animals were sacrificed after 45 days and tumor volumes compared.
(§1) The results from the biological activity analysis of the hydroquinones of the invention are presented below. All values are expressed as the mean±SEM. Data analysis consisted of a one way analysis of variance and if appropriate followed by Dunnets test to assess differences between vehicle and treatment groups. Differences are considered significant at p<0.05.

The next series concerns K562 cells. The series can be described thus: K562 cell cytotoxicity, Alamar blue. It is filed as cell-based. Particulars: Homo sapiens. Here is the method:
(§2) The human cancer cell lines SKBr3, MV4-11, K562, SK-MEL-28, LnCAP, and MDA-MB-468 were obtained from the American Type Culture Collection (Manassas, Va.). The multiple myeloma RPMI-8226 and MM1.s cells were from Dr. Teru Hideshima (Jerome Lipper Multiple Myeloma Center, Dana Farber Cancer Institute, Boston, Mass., USA.). All the cell lines were determined to be mycoplasma-free. The cells were maintained in RPMI-1640 medium supplemented with 10% heat-inactivated FBS, 50 units/mL streptomycin and 50 units/mL penicillin, and incubated at 37° C. in 5% CO2. Adherent cells were dissociated with 0.05% trypsin and 0.02% EDTA in phosphate buffer saline (PBS) without calcium and magnesium prior to plating for experimentation.
K562 cells were incubated with increasing concentrations of the test compound. Cell viability was assessed using an Alamar blue read out

A further series deals with SK-MEL-28 cells. The series can be described thus: SK-MEL-28 cell cytotoxicity, Alamar blue. Format: cell-based. The note with it: Homo sapiens, SK-MEL-28 cells, 2, 3 or 4 days. On the procedure:
as §2
Increasing concentrations of the test compound was added to SK-MEL-28 cells in culture for 2, 3 or 4 days and the viability of the cells was measured using Alamar blue.

The test system of the next series is MV4-11 cells. The series can be described thus: MV4-11 cell cytotoxicity, Alamar blue. The note with it: Homo sapiens, 72 h, 3 days. It is filed as cell-based. Here is the method: as §2
MV4-11 cells were incubated for 3 days with increasing concentrations of the test compound. Cell viability was assessed using an Alamar blue read out.

For series [2], the system named is Native human Hsp90 protein isolated from HeLa cells. The series can be described thus: Competitive binding to HSP90, fluorescence polarization assay with BODIPY-GDM. Particulars: competitive binding experiment. In general terms: Fluorescence polarisation rises when a labelled molecule tumbles more slowly, as on binding a larger partner.
Protocol: A 20 nM BODIPY-GDM solution was freshly prepared in FP binding assay buffer [20 mM HEPES-KOH, pH 7.3, 1.0 mM EDTA, 100 mM potassium chloride, 5.0 mM magnesium chloride, 0.01% NP-40, 0.1 mg/mL Bovine γ-globulin (BGG), 1.0 mM DTT, and Complete™ protease inhibitor] from a 20 μM stock solution in DMSO. […] After 3-h incubation at 30° C., fluorescence anisotropy was measured on an EnVision 2100 multilabel plate reader equipped with a 485 nm excitation filter and a 535 nm P/S emission filter (Perkin Elmer, Boston, Mass.).
A dilution series for each compound was freshly prepared in FP binding assay buffer from 20 μM to 0.20 nM. […] After 3-h incubation at 30° C., fluorescence anisotropy was measured on an EnVision 2100 plate reader.
Assays were performed under nitrogen atmosphere in a LabMaster glove box (M. Braun, Stratham, N H). […] After 3-h incubation at 30° C., the microplate was brought out of the glove box, and fluorescence anisotropy was immediately measured on an EnVision 2100 plate reader.
Binding of BODIPY-GDM to Hsp90 results in simultaneous increases in fluorescence anisotropy (FA) and intensity (FI). […]
[formula] with Hill coefficient forced to 1 for simplicity. From the values of FImax (bound ligand) and FImin (free ligand), a Q factor is calculated by: […]
[formula] and FA being expressed as the weighted sum of contributions from the free and bound forms of ligand: […]
Another series has as its system MM1.s cells. The series can be described thus: MM1.s cell cytotoxicity, Alamar Blue assay. It is filed as cell-based. The note with it: Homo sapiens, 72 h. Here is the method:
as §2
Alamar Blue assay. MM1.s cells (50,000/well) were incubated for 72 h with increasing concentrations of the test compound. Alamar blue was added to the wells and fluorescence measured 4 h after incubation at 37° C.
In general terms: Alamar Blue is a resazurin reagent that responds to reducing activity.

The subject of another series is SKOV-3 cells. Briefly: Ovarian carcinoma model, SKOV-3 xenograft. Format: in vivo. The note with it: SKOV-3 s.c. in female nu/nu athymic mice; 100 mg/kg IV twice weekly; after 88 days. On the procedure:
A study was performed in the SKOV-3 ovarian mouse xenograft model to assess the ability of the test compound to reduce subcutaneous tumor burden. In this study, female nu/nu athymic mice were implanted subcutaneously with SKOV-3 cells (1×10^7 cells). When the average tumor size reached 100 mm^3, animals were randomly assigned to treatment groups (N=10-15/group) to receive either vehicle, the test compound at 100 mg/kg (300 mg/m^2) twice weekly. The test article or vehicle was administered intravenously (IV) via the tail vein in a volume of 0.1 mL over approximately 10 seconds (sec). The animals were sacrificed after 88 days and tumor volumes compared.
as §1

A further series concerns LnCAP cells. Briefly: LnCAP cell cytotoxicity, Alamar blue. The note with it: Homo sapiens, 96 h, 4 days. Format: cell-based. Here is the method:
as §2
Increasing concentrations of the test compound added to LnCAP cells in culture for 4 days and the viability of the cells was measured using Alamar blue.

The nature of a further series: physchem. Particulars: water / aqueous solutions.
The test system of a further series is Lewis lung cells. Briefly: Murine Lewis lung model. Format: in vivo. The note with it: Lewis lung cells s.c. in C57B1/6 mice; 75 mg/m^2 MWF for 3 cycles, tail vein; after 25 days. Here is the method:
A study was performed in the mouse Lewis lung model to assess the ability of the compounds of the present invention to reduce both subcutaneous tumor burden as well as the incidence of lung metastasis. In this study C57B1/6 mice were implanted subcutaneously with Lewis lung cells (1×10^6 cells). When the average tumor size reached 71 mm^3 animals (N=10-15/group) were randomly assigned to the following treatment groups: vehicle and compound 15 75 mg/m^2 Monday, Wednesday and Friday (MWF) for 3 cycles. Each cycle consisted of […] of treatment. The test article or vehicle was administered via the tail vein in a volume of 0.2 mL over approximately 30 sec. The animals were sacrificed after 25 days and tumor volumes were compared.
as §1

The subject of another series is SKBr3 cells. The series can be described thus: SKBr3 cell cytotoxicity, Alamar blue. Format: cell-based. The note with it: Homo sapiens, SK-BR-3, 72 h. On the procedure:
as §2
SKBr3 Cells were incubated for 72 h with increasing concentrations of the test compound. For the viability studies Alamar blue was added and wells read after a 6 h incubation.

A further series concerns PC-3 cells. The series can be described thus: Prostate carcinoma, PC-3 xenograft models. Format: in vivo. Particulars: PC-3 s.c. in male nu/nu athymic mice; single agent 100 mg/kg twice weekly; after 64 days.
The test system of series [3] is MDA-MB-468 breast carcinoma. The series can be described thus: Breast carcinoma model, subcutaneous MDA-MB-468 tumors. It is filed as in vivo. Particulars: MDA-MB-468 s.c. in female nu/nu athymic mice; 100 mg/kg IV twice weekly; after 120 days. On the procedure:
A study was performed in the MDA-MB-468 breast carcinoma model to assess the ability of the test compound to reduce subcutaneous tumor burden. In this study, female nu/nu athymic mice were implanted subcutaneously with MDA-MB-468 cells (1×10^7 cells). When the average tumor size reached 100 mm^3, animals were randomly assigned (N=10-15/group) to one of the following treatment groups; vehicle or the test compound at 100 mg/kg (300 mg/m^2) twice weekly every week. The test article or vehicle was administered intravenously (IV) via the tail vein in a volume of 0.2 mL over approximately 20 seconds (sec). The animals were sacrificed after 120 days and tumor volumes compared.
as §1

Another series concerns MDA-MB-468 cells. Briefly: MDA-MB-468 cell cytotoxicity, Alamar blue. It is filed as cell-based. Particulars: Homo sapiens, 72 h. Here is the method: as §2
MDA-MB-468 Cells were incubated for 72 h with increasing concentrations of the test compound. For the viability studies Alamar blue was added and wells read after 6 h of incubation.

Series [4] deals with NCI 60 tumor cell line panel. Particulars: Developmental Therapeutics Program Website, read-out: mean IC50 over all cell lines in the panel; cited from earlier work.
For series [5] the following is noted: water / aqueous solutions.

Protocol for PC-3 cells: Two studies were performed in mouse PC-3 prostate xenograft models to assess the ability of the test compound to reduce subcutaneous tumor burden as a single agent or in combination with current standard of care. In both studies male nu/nu athymic mice were implanted subcutaneously with PC-3 cells (1×10^7 cells). When the average tumor size reached 100 mm^3 animals were randomly assigned to treatment groups (N=10-15/group). In the first study mice received either vehicle, the test compound 100 mg/kg (300 mg/m^2) twice weekly. The test article or vehicle was administered via the tail vein in a volume of 0.2 mL over approximately 20 sec. The animals were sacrificed after 64 days and tumor volumes compared.
A second study was performed in this model to assess the test compound in combination with the standard of care, Taxotere. […] The animals were sacrificed after 64 days and tumor volumes compared.

Turning to `C=CCNc1c(O)cc2c(O)c1C[C@@H](C)C[C@H](OC)[C@H](O)[C@@H](C)/C=C(\C)[C@H](OC(N)=O)[C@@H](OC)/C=C\C=C(/C)C(=O)N2` [Compound 15, HCl Salt of the Hydroquinone of 17-AAG], the “% Tumor Growth Compared to Vehicle” value in series [1] is listed as 71%; in the series with SKOV-3 cells, 59%; with Lewis lung cells, 60%; with PC-3 cells, 50%; in [3] it was 76%. Also, the EC50 in the series with K562 cells was 29 nM; in the series with SK-MEL-28 cells it was 200 nM; with MV4-11 cells, 25 nM; in the series with MM1.s cells, 307 nM; in the series on LnCAP cells, 73 nM; with SKBr3 cells, 32 nM. In addition, a half-maximal effect in the series on MDA-MB-468 cells (EC50) was put at 335 nM. Also, the “HSP90 inhibition (summary in words)” value in series [2] is given as “active HSP90 inhibitors”. Also, the solubility in “physchem” is over 200 mg/mL.
Turning to `C=CCNC1=C2C[C@@H](C)C[C@H](OC)[C@H](O)[C@@H](C)/C=C(\C)[C@H](OC(N)=O)[C@@H](OC)/C=C\C=C(/C)C(=O)NC(=CC1=O)C2=O` [Compound 17-AAG, 17-allylamino-17-demethoxygeldanamycin, reference compound], the concentration for half-maximal inhibition (IC50) in series [4] was 120 nM. The EC50 with K562 cells is 50 nM; in the series on MV4-11 cells, 38 nM; with MM1.s cells, 306 nM; with SKBr3 cells it was 34 nM; in the series on MDA-MB-468 cells, 356 nM.
In series [5], `C=CCNc1c(O)cc2c(O)c1C[C@@H](C)C[C@H](OC)[C@H](O)[C@@H](C)/C=C(\C)[C@H](OC(N)=O)[C@@H](OC)/C=C\C=C(/C)C(=O)N2` [hydroquinone of 17-AAG, 17-allylamino-18,21-dihydro-17-demethoxygeldanamycin] showed a solubility of 1 to 3 mg/mL.

By EC50 is commonly meant the midpoint of the concentration-response curve. A high value points to a need for much substance. The solubility is how much of the substance goes into solution per volume. The low end stands for a poorly soluble substance, the high end for a readily soluble substance. Usually IC50 stands for the concentration that gives 50% inhibition.
